Tests used:
[1] = system: Male rats (Sprague-Dawley); assay: EEG recordings and behavioral seizures in freely moving rats; assay type: in vivo; conditions: freely moving rat, iv
Source text: Electroencephalogram (EEG) rodent studies and assessment of seizures: Male rats (n = 8) (Sprague-Dawley), 400-800 g, were surgically implanted with Stellar Implantable Transmitter (E−430001-IMP-77, Type PBT-M-C Pressure, Biopotential, Temp; TSE systems USA) and microchipped with RFID (Bio13. Therm.03V1 PLS, Biomark Inc, USA) transponder for measurements of activity and body temperature. EEG was used to confirm that convulsive activity is linked to seizurogenic activity measured on the EEG.

[2] = system: rat primary cortical neurons
Protocol: (§1) At DIV28, spontaneous neuronal activity obtained for 30 min in culture solution was defined as the baseline.
(§2) Data analysis was captured using AxIs suite software (Axion Biosystems Inc., version 3.6.2) and further analyzed using GraphPad Prism (version 9.00; GraphPad Software Inc., San Diego, CA). […] An active well should have more than 40% active electrodes. All wells below this threshold were discarded upon these quality criteria. For the downstream statistical analysis, the data on each MEA parameter was first expressed as the ratio of exposed wells (percentage change between baseline and the treatment) and then normalized to the average of the control within the same plate. i.e., Baseline corrected ratios of n= 7 or eight wells were averaged per condition. Each well of the MEA served as its own control, and the changes in the electrical activity elicited by the treatments were expressed as a percentage of that control activity and normalized to the wells treated with the vehicle control dimethyl sulfoxide (DMSO). […] Differences were determined using the non-parametric Wilcoxon Mann Whitney test; p-values below 0.05 were considered significant. Data are expressed as means ± S.E.M.
(§3) Thereafter, based on the effects of vehicles and positive controls, we determined the cut-off points between the different effect zones according to the key parameters selected as described in the previous subsection. The zones were defined as follows. The “no effect” zone reflects parameter changes that are most likely within vehicle variability. The “mild” and “strong” zones are differentiated bidirectionally showing mild and strong effects.
(§4) The respective hazard class was determined by a cumulative scoring of individual parameters using a scoring matrix, which was based on the following three fundamental components: (1) selection of the six key relevant parameters, (2) defining the cutoffs for the level of effect, and (3) defining weighted points per parameter for the level of hazard potential. The scoring matrix concluded with the addition of a weighted point algorithm to discriminate distinct degrees of neuronal hazard. […] The weighted points were defined on the importance of a parameter (and the direction of effect), as well as the identification of an expected hazard for different pharmacological modes of action. The overall hazard score is derived from the sum of all weighted parameters, which could be converted into a specific hazard label. The weighted points and total score range associated with the various hazard labels were optimized using an iterative process.

[3] = established from VigiBase, SIDER, Elsevier drug information and FDA prescribing information
[4] = Supplementary Table S1; cited from earlier work
[5] = WHO adverse drug reactions VigiBase; ref Kumlien and Lundberg, 2010; cited from earlier work
[6] = seizure ADR frequency in SIDER; ref Campillos et al., 2008; Kuhn et al., 2010; cited from earlier work
[7] = system: rat primary cortical neurons; assay: MEA hazard scoring in rat primary cortical neuronal cultures
Protocol: as §1, §2, §3, §4

[8] = ref National library of medicine, Daylimed; cited from earlier work

| SMILES | EEG spikes ([1]; 1 mg/kg) | convulsions and seizures ([1]; 3 mg/kg) | hazard score group in Figure 3 [2] | Classification* (degree of seizure risk) [3] | Free Cmax highest [4] [nM] | Percentage seizures of total number of ADRs [5] [%] | SIDER ADR on-/off-label [6] | firing rate (weighted mean firing rate) in MEA recordings ([7]; rodent cortical neurons in vitro) | FDA prescription information at therapeutic dose (Convulsion/ Seizure/Lower the seizure threshold/withdrawal) [8] | hazard classification in the hazard scoring system ([7]; rat primary neurons on MEA) |
| --- | --- | --- | --- | --- | --- | --- | --- | --- | --- | --- |
| Nc1ccncc1 [4-Aminopyridine] | significantly increased | induced convulsions and seizures | Neuro Active to high hazard | Risk | 240 | 2.353 | no frequency information | largely increased |  |  |
| O=C1CN=C(c2ccccc2Cl)c2cc([N+](=O)[O-])ccc2N1 [Clonazepam] |  |  | Neuro Active to hazard | Risk | 12 | 2.831 | not found on label |  | on label | hazards |
| CCCC(C)C1(CC)C(=O)NC(=O)NC1=O (stereo not drawn) [Pentobarbital] |  |  | Neuro Active to hazard | Risk | 5100 | 3.3557 | not found on label |  | not found on label |  |

— PMC11170107, “Development of a new hazard scoring system in primary neuronal cell cultures for drug-induced acute neuronal toxicity identification in early drug discovery” (Frontiers in Pharmacology, 2024)
